Reference: patent publication US8017611B2, “Pyridine and pyrazine derivatives -083” (AstraZeneca AB, priority 2007, dated 2011)
Marks after values point to notes of the source that are not given here.

Biological target: T1, recombinant Axl tyrosine kinase (Homo sapiens, UniProt P30530)
T1 construct: encompassing amino acids 473 to 894 of Axl; GST (N); made in house; host or cells: SF126 insect cells
T1 sequence (P30530 473-894): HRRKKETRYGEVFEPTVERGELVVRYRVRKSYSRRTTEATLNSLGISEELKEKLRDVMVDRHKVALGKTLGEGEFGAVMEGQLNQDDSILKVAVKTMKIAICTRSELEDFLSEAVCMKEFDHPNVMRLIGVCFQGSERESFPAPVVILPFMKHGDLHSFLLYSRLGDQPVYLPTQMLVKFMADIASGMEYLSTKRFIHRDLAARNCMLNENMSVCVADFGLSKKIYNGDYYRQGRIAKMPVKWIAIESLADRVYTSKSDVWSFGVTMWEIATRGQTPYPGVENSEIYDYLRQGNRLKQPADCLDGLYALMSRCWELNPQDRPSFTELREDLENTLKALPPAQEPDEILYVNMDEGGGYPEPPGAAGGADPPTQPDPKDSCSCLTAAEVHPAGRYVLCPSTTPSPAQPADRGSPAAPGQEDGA
Assay: In vitro Axl kinase assay (AlphaScreen), Test (a)
Format: biochemical
Details: 1 μM; mean calculated from a larger number of replicates than the first value

For Nc1ncc(-c2ccc(CN3CCOCC3)cc2)nc1-c1nc2ccccc2o1 [Example 20.6], the “% Axl tyrosine kinase inhibition at 1 μM concentration (second value, †)” value was 99.2%.

Same assay, conditions: Test (a); read-out: IC50 versus Axl tyrosine kinase

Work on COCc1nn(C2CCN(C(=O)CO)CC2)cc1-c1cnc(N)c(-c2nc3ccccc3o2)c1 [Example 66, 1-[4-[4-[6-amino-5-(1,3-benzoxazol-2-yl)-3-pyridyl]-3-(methoxymethyl)pyrazol-1-yl]-1-piperidyl]-2-hydroxy-ethanone] yielded an IC50 of about 0.6 nM.

Same assay, conditions: test compound at 1 μM; first value quoted

Compared with COc1cccc2oc(-c3cc(-c4cnn(C5CCNCC5)c4)cnc3N)nc12 [Example 38A.1], NC(=O)c1nn(C2CCNCC2)cc1-c1cnc(N)c(-c2nc3ccccc3o2)c1 [Example 62.5] is higher in “% Axl tyrosine kinase inhibition at 1 μM concentration” value: 97.8% for the first, 99.5% for the second.

Compared with Nc1ncc(-c2ccc(CO)s2)cc1-c1nc2ncccc2o1 [Example 10A.19], Nc1ncc(-c2ccc(CO)s2)cc1-c1nc2cccnc2o1 [Example 9A.19] is higher in “% Axl tyrosine kinase inhibition at 1 μM concentration” value: 90.1% for the first, 95.6% for the second.

First: CS(=O)(=O)N1CCN(CCCOc2ccc(-c3cnc(N)c(-c4nc5ncccc5o4)c3)cc2)CC1 [Example 43B.15]
Second: CN(C)CCOc1ccc(-c2cnc(N)c(-c3nc4ncccc4o3)c2)cc1 [Example 43B.2]
The “% Axl tyrosine kinase inhibition at 1 μM concentration” value of the first is lower: 86.0% for the first, 96.9% for the second.

Going from Nc1ncc(-c2cnn(CCN3CCCC3)c2)cc1-c1nc2ccccc2o1 [Example 27.3] to Nc1ncc(-c2cnn(CCCN3CCC3)c2)cc1-c1nc2ccccc2o1 [Example 31.6], the “% Axl tyrosine kinase inhibition at 1 μM concentration” value rises from 96.4% to 99.7%.

Compared with N#CCc1cccc(-c2cnc(N)c(-c3nc4ccccc4o3)n2)c1 [Example 20.16], CCS(=O)(=O)c1cccc(-c2cnc(N)c(-c3nc4ccccc4o3)n2)c1 [Example 20.13] is lower in “% Axl tyrosine kinase inhibition at 1 μM concentration” value: 99.6% for the first, 97.2% for the second.

Going from Nc1ncc(-c2ccc3[nH]ccc3c2)cc1-c1nc2ccccc2o1 [Example 2.29] to Nc1ncc(-c2ccc(CO)cc2)cc1-c1nc2ccccc2o1 [Example 2.16], the “% Axl tyrosine kinase inhibition at 1 μM concentration” value rises from 31.3% to 94.0%.

Compared with Nc1ncc(-c2ccc3c(c2)OCCO3)cc1-c1nc2ccccc2o1 [Example 2.21], CNC(=O)c1cccc(-c2cnc(N)c(-c3nc4ccccc4o3)c2)c1 [Example 2.17] is higher in “% Axl tyrosine kinase inhibition at 1 μM concentration” value: 45.4% for the first, 68.9% for the second.

Going from Nc1ncc(-c2ccc(C(=O)N3CCN4CCCC4C3)cc2)cc1-c1nc2cccnc2o1 (centres unmarked) [Example 45A.74] to CN(C)[C@@H]1CCN(C(=O)c2ccc(-c3cnc(N)c(-c4nc5cccnc5o4)c3)cc2)C1 [Example 45A.76], the “% Axl tyrosine kinase inhibition at 1 μM concentration” value falls from 99.9% to 96.7%.

Going from Nc1ncc(-c2ccc(C(=O)NCCN3CCOCC3)cc2)cc1-c1nc2ncccc2o1 [Example 45B.3] to Nc1ncc(-c2ccc(C(=O)NCCCN3CCOCC3)cc2)cc1-c1nc2cccnc2o1 [Example 45A.57], the “% Axl tyrosine kinase inhibition at 1 μM concentration” value falls from 97.7% to 96.9%.

First: Nc1ncc(-c2ccc(C(=O)N3CCC(C4CCNCC4)CC3)cc2)cc1-c1nc2cccnc2o1 [Example 45A.86]
Second: Nc1ncc(-c2ccc(C(=O)N[C@H]3CN4CCC3CC4)cc2)cc1-c1nc2cccnc2o1 [Example 45A.35]
The “% Axl tyrosine kinase inhibition at 1 μM concentration” value of the first is lower: 95.8% for the first, 98.4% for the second.

Going from CN1CCC(n2cc(-c3cnc(N)c(-c4nc5c(F)cc(F)cc5o4)c3)cn2)CC1 [Example 7.6] to CN1CCC(n2cc(-c3cnc(N)c(-c4nc5c(F)cccc5o4)c3)c(C(=O)N(C)C)n2)CC1 [Example 41.37], the “% Axl tyrosine kinase inhibition at 1 μM concentration” value falls from 99.9% to 99.5%.

Going from CC(O)c1nn(C2CCN(C)CC2)cc1-c1cnc(N)c(-c2nc3c(C#N)cccc3o2)c1 (centres unmarked) [Example 41.41] to CN1CCC(n2cc(-c3cnc(N)c(-c4nc5ccccc5o4)c3)c(C#N)n2)CC1 [Example 41.28], the “% Axl tyrosine kinase inhibition at 1 μM concentration” value rises from 99.7% to 100.0%.

First: NC(=O)CCN1CCN(C(=O)c2ccc(-c3cnc(N)c(-c4nc5cccnc5o4)c3)cc2)CC1 [Example 45A.71]
Second: Nc1ncc(-c2ccc(C(=O)NCCO)cc2)cc1-c1nc2cccnc2o1 [Example 9A.2]
The “% Axl tyrosine kinase inhibition at 1 μM concentration” value of the first is lower: 93.7% for the first, 97.0% for the second.

Compared with CN1CCC(Oc2ccc(-c3cnc(N)c(-c4nc5ncccc5o4)c3)cc2)C1 (centres unmarked) [Example 43B.4], Nc1ncc(-c2ccc(OCC3CCCNC3)cc2)cc1-c1nc2ncccc2o1 (centres unmarked) [Example 43B.41] is lower in “% Axl tyrosine kinase inhibition at 1 μM concentration” value: 99.3% for the first, 99.0% for the second.

First: CN(C)CCCNC(=O)c1ccc(-c2cnc(N)c(-c3nc4cnccc4o3)c2)cc1 [Example 8A.17]
Second: Nc1ncc(-c2ccc(C(=O)NCCO)cc2)cc1-c1nc2cnccc2o1 [Example 8A.25]
The “% Axl tyrosine kinase inhibition at 1 μM concentration” value of the first is higher: 99.8% for the first, 98.7% for the second.

Going from Nc1ncc(-c2cccc(C(=O)NCCN3CCCC3)c2)cc1-c1nc2cnccc2o1 [Example 8A.22] to Nc1ncc(-c2cccc(CN3CCCC3)c2)cc1-c1nc2cccnc2o1 [Example 9A.8], the “% Axl tyrosine kinase inhibition at 1 μM concentration” value rises from 95.3% to 96.5%.

Compared with Nc1ncc(-c2cccc(N3CCOCC3)c2)nc1-c1nc2ccccc2o1 [Example 20.8], Nc1ncc(-c2ccc(CN3CCOCC3)cc2)nc1-c1nc2ccccc2o1 [Example 20.6] is higher in “% Axl tyrosine kinase inhibition at 1 μM concentration” value: 98.9% for the first, 99.1% for the second.

First: Nc1ncc(-c2ccc(S(=O)(=O)NC3CC3)cc2)cc1-c1nc2ccccc2o1 [Example 2.30]
Second: COCc1ccc(-c2cnc(N)c(-c3nc4ccccc4o3)c2)cc1 [Example 2.37]
The “% Axl tyrosine kinase inhibition at 1 μM concentration” value of the first is higher: 96.1% for the first, 91.9% for the second.

Going from CN(C)CCN(C)C(=O)c1ccc(-c2cnc(N)c(-c3nc4cccnc4o3)c2)cc1 [Example 45A.48] to CNCCCNC(=O)c1ccc(-c2cnc(N)c(-c3nc4cccnc4o3)c2)cc1 [Example 45A.81], the “% Axl tyrosine kinase inhibition at 1 μM concentration” value rises from 98.3% to 99.6%.

Going from Nc1ncc(-c2ccc(OCCOC3CCNCC3)cc2)cc1-c1nc2ncccc2o1 [Example 43B.37] to COc1cc(-c2cnc(N)c(-c3nc4ncccc4o3)c2)ccc1OC1CCCNCC1 (centres unmarked) [Example 43C.38], the “% Axl tyrosine kinase inhibition at 1 μM concentration” value rises from 97.6% to 99.8%.

Compared with Nc1ncc(-c2ccc(C(=O)NCCn3ccnc3)cc2)cc1-c1nc2cccnc2o1 [Example 45A.7], CCN(CC)CCNC(=O)c1cccc(-c2cnc(N)c(-c3nc4cccnc4o3)c2)c1 [Example 9A.7] is lower in “% Axl tyrosine kinase inhibition at 1 μM concentration” value: 97.7% for the first, 91.7% for the second.

Compared with COc1nn(C2CCN(C)CC2)cc1-c1cnc(N)c(-c2nc3ccccc3o2)c1 [Example 41.14], CCS(=O)(=O)c1cccc(-c2cnc(N)c(-c3nc4ccccc4o3)c2)c1 [Example 2.5] is lower in “% Axl tyrosine kinase inhibition at 1 μM concentration” value: 100.0% for the first, 73.5% for the second.

Compared with CC(=O)Nc1cccc(-c2cnc(N)c(-c3nc4ccccc4o3)c2)c1 [Example 2.20], Nc1ncc(-c2cccc(C(=O)NC3CC3)c2)cc1-c1nc2cccnc2o1 [Example 9A.17] is lower in “% Axl tyrosine kinase inhibition at 1 μM concentration” value: 97.6% for the first, 73.2% for the second.

In the case of CCN(CC)CCOc1ccc(-c2cnc(N)c(-c3nc4ncccc4o3)c2)cc1OC [Example 43C.4], the “% Axl tyrosine kinase inhibition at 1 μM concentration” value is reported as 99.8%.

For Nc1ncc(-c2ccc(OCCN3CCCCC3)cc2)cc1-c1nc2ncccc2o1 [Example 43B.8], the “% Axl tyrosine kinase inhibition at 1 μM concentration” value was 19.0^††† %.
For CN(C)S(=O)(=O)c1cccc(-c2cnc(N)c(-c3nc4ccccc4o3)c2)c1 [Example 2.39], the “% Axl tyrosine kinase inhibition at 1 μM concentration” value was 17.1* %.

Same assay, conditions: test compound at 1 μM; first value quoted; read-out: % Axl tyrosine kinase inhibition at 1 μM concentration

Going from COCCOC(=O)N1CCC(n2cc(-c3cnc(N)c(-c4nc5ncccc5o4)c3)cn2)CC1 [Example 54, 2-methoxyethyl 4-[4-(6-amino-5-oxazolo[4,5-b]pyridin-2-yl-3-pyridyl)pyrazol-1-yl]piperidine-1-carboxylate] to COCC(=O)N1CCC(n2cc(-c3cnc(N)c(-c4nc5ccccc5o4)c3)cn2)CC1 [Example 33, 1-[4-[4-[6-amino-5-(1,3-benzoxazol-2-yl)-3-pyridyl]pyrazol-1-yl]-1-piperidyl]-2-methoxy-ethanone], the inhibition at 1 µM rises from 99.5% to 99.9%.

Compared with Nc1ncc(-c2ccc(OCCCN3CCCC3)cc2)cc1-c1nc2cccnc2o1 [Example 42, 3-oxazolo[5,4-b]pyridin-2-yl-5-[4-(3-pyrrolidin-1-ylpropoxy)phenyl]pyridin-2-amine], Nc1ncc(-c2cccc(S(=O)(=O)CCC3CCNCC3)c2)cc1-c1nc2ccccc2o1 [Example 46, 3-(1,3-Benzoxazol-2-yl)-5-[3-[2-(4-piperidyl)ethylsulphonyl]phenyl]pyridin-2-amine] is lower in inhibition at 1 µM: 99.7% for the first, 95.9% for the second.

COCc1nn(C2CCN(C(=O)CN(C)C)CC2)cc1-c1cnc(N)c(-c2nc3ccccc3o2)c1 [Example 71, 1-[4-[4-[6-amino-5-(1,3-benzoxazol-2-yl)-3-pyridyl]-3-(methoxymethyl)pyrazol-1-yl]-1-piperidyl]-2-dimethylaminoethanone] and COCc1nn(C2CCN(C(=O)CO)CC2)cc1-c1cnc(N)c(-c2nc3ccccc3o2)c1 [Example 66, 1-[4-[4-[6-amino-5-(1,3-benzoxazol-2-yl)-3-pyridyl]-3-(methoxymethyl)pyrazol-1-yl]-1-piperidyl]-2-hydroxy-ethanone] are the same in inhibition at 1 µM: 100% for the first, 100% for the second.

Same assay, conditions: test compound at 30 μM

With Nc1ncc(-c2ccc(OCCN3CCCCC3)cc2)cc1-c1nc2ncccc2o1 [Example 43B.8] the “% of Axl tyrosine kinase activity inhibited at a concentration of 30 μM” value was “^†††the compound disclosed in Example 43B.8 inhibited 98% of Axl tyrosine kinase activity at a concentration of 30 μM”.
In the case of CN(C)S(=O)(=O)c1cccc(-c2cnc(N)c(-c3nc4ccccc4o3)c2)c1 [Example 2.39], the “% of Axl tyrosine kinase activity inhibited at a concentration of 30 μM” value is reported as “*the compound disclosed in Example 2.39 inhibited 58.6% of Axl tyrosine kinase activity at a concentration of 30 μM”.
